Data from EP3383875B1, “3-PYRIMIDINYL PYRROLO [2,3-B] PYRIDINE AS ANTICANCER AGENTS AND THE PROCESS FOR THE PREPARATION THEREOF” (Council Of Scientific & Industrial Research, priority 2015, dated 2017).
Like-named read-outs stand apart in the source and are kept apart here.

Columns and labels:
[1] = system: MDA-MB435; test: MTT assay on cancer cell line MDA-MB435; type: cell-based, Human; details: Homo sapiens, MDA-MB-435; MDA-MB435; at 10µM; Table 9 (for reference); read-out: In vitro cell inhibition, % of inhibition, MDA-MB435
Protocol: (§1) Cell culture, growth conditions and treatments. […] Different molecules were dissolved in DMSO and were delivered to cell cultures in complete medium.

[2] = system: MCF-7; test: MTT assay on cancer cell line MCF-7; type: cell-based, Human; details: Homo sapiens
Protocol: as §1

[3] = system: SHSY-5Y; test: MTT assay on cancer cell line SHSY-5Y; type: cell-based, human; details: Homo sapiens, SH-SY5Y
Protocol: as §1

[4] = system: HCT-116; test: MTT assay on cancer cell line HCT-116; type: cell-based, human; details: Homo sapiens, at 10µM, Table 9 (for reference), read-out: In vitro cell inhibition, % of inhibition, HCT-116
Protocol: as §1

[5] = system: PC-3; test: MTT assay on cancer cell line PC-3; type: cell-based, human; details: Homo sapiens, Table 9 (for reference), read-out: In vitro cell inhibition, % of inhibition, PC-3
Protocol: as §1

[6] = target: CDK-9/Cyclin T1 (Homo sapiens, UniProt P50750); test: CDK inhibition assay, CDK-9/Cyclin T1 against substrate peptide, 33P-ATP; type: biochemical
Chain of CDK-9/Cyclin T1 (P50750 whole entry): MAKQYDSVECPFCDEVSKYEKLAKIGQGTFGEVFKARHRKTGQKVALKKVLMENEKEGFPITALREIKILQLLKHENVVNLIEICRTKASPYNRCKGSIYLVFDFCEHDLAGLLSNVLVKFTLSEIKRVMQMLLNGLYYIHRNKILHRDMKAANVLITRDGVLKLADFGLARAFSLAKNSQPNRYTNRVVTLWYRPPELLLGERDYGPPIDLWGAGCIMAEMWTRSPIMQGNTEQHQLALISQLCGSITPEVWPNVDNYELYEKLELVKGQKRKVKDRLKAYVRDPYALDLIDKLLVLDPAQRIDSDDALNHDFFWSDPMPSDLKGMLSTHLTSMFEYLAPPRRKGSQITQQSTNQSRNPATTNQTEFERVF
Chain of CDK-9/Cyclin T1 (O60563 whole entry partner): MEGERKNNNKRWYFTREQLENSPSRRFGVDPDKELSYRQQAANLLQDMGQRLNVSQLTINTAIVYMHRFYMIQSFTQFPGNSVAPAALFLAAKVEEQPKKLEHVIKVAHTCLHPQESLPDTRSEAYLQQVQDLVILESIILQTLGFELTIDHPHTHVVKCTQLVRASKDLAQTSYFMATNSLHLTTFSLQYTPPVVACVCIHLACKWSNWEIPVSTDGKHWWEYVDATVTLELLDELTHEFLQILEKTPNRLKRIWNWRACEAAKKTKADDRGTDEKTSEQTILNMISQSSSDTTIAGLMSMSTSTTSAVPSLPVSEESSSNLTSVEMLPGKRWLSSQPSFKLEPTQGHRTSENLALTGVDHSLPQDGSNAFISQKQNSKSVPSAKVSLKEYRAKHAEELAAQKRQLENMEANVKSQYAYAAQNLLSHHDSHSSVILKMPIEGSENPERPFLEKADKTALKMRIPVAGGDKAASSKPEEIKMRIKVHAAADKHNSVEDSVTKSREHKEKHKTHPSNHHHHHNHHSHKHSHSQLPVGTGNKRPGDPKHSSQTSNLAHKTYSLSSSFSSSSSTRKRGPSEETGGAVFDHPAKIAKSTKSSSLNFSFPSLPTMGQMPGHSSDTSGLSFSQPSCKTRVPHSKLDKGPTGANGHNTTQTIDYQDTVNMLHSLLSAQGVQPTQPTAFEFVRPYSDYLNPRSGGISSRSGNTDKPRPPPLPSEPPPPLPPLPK
Protocol: (50-1000 cpm/pmole) and incubated for 30 min at room temperature. Assays were stopped by addition of 5 µl of 0.5 M (3%) orthophosphoric acid and then harvested onto P81 Unifilter plates with a wash buffer of 50 mM orthophosphoric acid.

[7] = target: CDK-2/cyclin A (Homo sapiens, UniProt P24941); test: CDK inhibition assay, CDK-2/cyclin A against Histone HI, 33P-ATP; type: biochemical
Protocol: Compounds were evaluated for their ability to inhibit CDK2 and CDK9 as given below.
CDK-2/cyclin A (5-20 mU diluted in 50 mM Hepes pH 7.5, 1 mM DTT, 0.02% Brij35, 100 mM NaCl) was assayed against Histone HI in a final volume of 25.5 µl containing 50 mM Hepes pH7.5, 1 mM DTT, 0.02% Brij35, 100 mM NaCl, Histone HI (1 mg/ml), 10 mM magnesium acetate and 0.02 mM [33P-g-ATP](500-1000 cpm/pmole) and incubated for 30 min at room temperature. Assays were stopped by addition of 5 µl of 0.5 M (3%) orthophosphoric acid and then harvested onto P81 Unifilter plates with a wash buffer of 50 mM orthophosphoric acid.

[8] = MCF7, MCF-7, Table 9 (for reference), read-out: In vitro cell inhibition, % of inhibition, MCF-7
[9] = MCF7, read-out: inhibition against MCF-7 cell lines
[10] = SHSY-5Y, Table 9 (for reference), read-out: In vitro cell inhibition, % of inhibition, SHSY-5Y
[11] = read-out: inhibition against SHSY-5Y cell lines
[12] = at 500 nM, Table-6, read-out: In vitro CDK9 % of inhibition
[13] = at 500 nM, read-out: inhibition against CDK9
[14] = at 500 nM, Table-6, read-out: In vitro CDK2 % of inhibition
[15] = at 500 nM, read-out: inhibition against CDK2
[16] = at 500 nM, Table-7, read-out: In vitro CDK2 % of inhibition

SMILES | inhibition at 10 µM [1] [%] | inhibition at 10 µM [2, 8] [%] | inhibition at 10 µM [2, 9] [%] | inhibition at 10 µM [3, 10] [%] | inhibition at 10 µM [4] [%] | inhibition at 10 µM [5] [%] | inhibition at 0.5 µM [6, 12] [%] | inhibition at 0.5 µM [6, 13] [%] | inhibition at 0.5 µM [7, 14] [%] | inhibition at 0.5 µM [7, 15] [%] | other results
CSc1ccc(-c2cnc3[nH]cc(-c4ccnc(N)n4)c3c2)cc1 [1C8, 4-(5-(4-(methylthio)phenyl)-1H-pyrrolo[2,3-b]pyridin-3-yl)pyrimidin-2-amine] | > 70 | > 50 | > 50 | > 50 | > 70 | < 50 | – | – | – | – | –
COc1ccc(-c2cnc3[nH]cc(-c4ccnc(N)n4)c3c2)cc1 [1C11, 4-(5-(4-methoxyphenyl)-1H-pyrrolo[2,3-b]pyridin-3-yl)pyrimidin-2-amine] | > 70 | > 50 | > 50 | > 70 | > 70 | < 50 | – | – | – | – | inhibition at 10 µM [3, 11]: > 70%
Nc1nccc(-c2c[nH]c3ncc(-c4cc5ccccc5[nH]4)cc23)n1 [1C19, 4-(5-(1H-indol-2-yl)-1H-pyrrolo[2,3-b]pyridin-3-yl)pyrimidin-2-amine] | > 50 | > 50 | > 70 | > 70 | > 50 | < 50 | – | – | – | – | inhibition at 10 µM [3, 11]: > 70%
CSc1ccccc1-c1cnc2[nH]cc(-c3ccnc(NC4CC4)n3)c2c1 [1A9, N-cyclopropyl-4-(5-(2-(methylthio)phenyl)-1H-pyrrolo[2,3-b]pyridin-3-yl)pyrimidin-2-amine] | – | – | – | – | – | – | > 70 | > 70 | > 70 | > 70 | –
Clc1ccc(-c2cnc3[nH]cc(-c4ccnc(NC5CCCCCC5)n4)c3c2)cc1 [1A52, 4-(5-(4-chlorophenyl)-1H-pyrrolo[2,3-b]pyridin-3-yl)-N-cycloheptylpyrimidin-2-amine] | – | – | – | – | – | – | – | > 70 | – | > 70 | inhibition at 0.5 µM ([6]; at 500 nM, Table-7, read-out: In vitro CDK9 % of inhibition): > 70%; inhibition at 0.5 µM [7, 16]: > 70%
Cc1cccc(-c2cnc3[nH]cc(-c4ccnc(NC5CCCC5)n4)c3c2)c1 [1A27, N-cyclopentyl-4-(5-(m-tolyl)-1H-pyrrolo[2,3-b]pyridin-3-yl)pyrimidin-2-amine] | – | – | – | – | – | – | > 50 | > 50 | > 50 | > 50 | –
Nc1nccc(-c2c[nH]c3ncc(-c4ccc(OC(F)(F)F)cc4)cc23)n1 [1C3, 4-(5-(4-(trifluoromethoxy)phenyl)-1H-pyrrolo[2,3-b]pyridin-3-yl)pyrimidin-2-amine] | > 70 | > 70 | > 70 | > 70 | > 70 | > 50 | – | – | – | – | inhibition at 10 µM [3, 11]: > 70%
c1ccc2sc(-c3cnc4[nH]cc(-c5ccnc(NC6CC6)n5)c4c3)cc2c1 [1A18, 4-(5-(benzo[b]thiophen-2-yl)-1H-pyrrolo[2,3-b]pyridin-3-yl)-N-cyclopropylpyrimidin-2-amine] | – | – | – | – | – | – | > 70 | > 70 | > 70 | > 70 | –
FC(F)(F)c1ccc(-c2cnc3[nH]cc(-c4ccnc(NC5CC5)n4)c3c2)cc1 [1A1, N-cyclopropyl-4-(5-(4-(trifluoromethyl)phenyl)-1H-pyrrolo[2,3-b]pyridin-3-yl)pyrimidin-2-amine] | – | – | – | – | – | – | < 50 | – | < 50 | – | –
c1ccc(CCNc2nccc(-c3c[nH]c4ncc(-c5ccoc5)cc34)n2)cc1 [1B16, 4-(5-(furan-3-yl)-1H-pyrrolo[2,3-b]pyridin-3-yl)-N-phenethylpyrimidin-2-amine] | – | – | – | – | – | – | – | – | – | – | inhibition at 0.5 µM ([6]; read-out: In vitro CDK9 % of inhibition): > 70%; inhibition at 0.5 µM ([6]; read-out: inhibition against CDK9): > 70%; inhibition at 0.5 µM [7, 16]: > 70%; inhibition at 0.5 µM ([7]; read-out: inhibition against CDK2): > 70%
Cc1ccc(-c2cnc3[nH]cc(-c4ccnc(NC5CCCC5)n4)c3c2)cc1 [1A26, N-cyclopentyl-4-(5-(p-tolyl)-1H-pyrrolo[2,3-b]pyridin-3-yl)pyrimidin-2-amine] | – | – | – | – | – | – | > 50 | > 50 | > 50 | > 50 | –
